Test [1] has as its target T1, Oxysterols receptor LXR-beta (Homo sapiens, UniProt P55055).
T1 sequence (P55055 whole entry): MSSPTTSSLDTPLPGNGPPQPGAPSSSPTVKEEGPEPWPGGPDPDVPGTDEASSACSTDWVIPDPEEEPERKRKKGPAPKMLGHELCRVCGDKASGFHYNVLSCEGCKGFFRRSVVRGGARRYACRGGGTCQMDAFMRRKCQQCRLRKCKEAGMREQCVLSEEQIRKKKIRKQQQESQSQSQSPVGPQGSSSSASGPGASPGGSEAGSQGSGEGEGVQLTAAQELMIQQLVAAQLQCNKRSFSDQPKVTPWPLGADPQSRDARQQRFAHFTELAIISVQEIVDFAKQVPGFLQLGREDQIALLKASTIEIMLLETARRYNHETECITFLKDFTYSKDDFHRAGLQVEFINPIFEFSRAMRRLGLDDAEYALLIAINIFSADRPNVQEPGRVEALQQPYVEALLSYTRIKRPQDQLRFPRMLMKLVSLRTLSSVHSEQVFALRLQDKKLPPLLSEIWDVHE
Format: functional, cell-based.

The target in test [2] is Endoplasmic reticulum aminopeptidase 1 (Homo sapiens, UniProt Q9NZ08). Put plainly: ERAP1 aminopeptidase inhibitors, dose response, biochemical, cherry-pick, set 2, plate reader (AID 743314).
Test [3] in a line: cells.
For test [4], the target named is T1, Oxysterols receptor LXR-beta. The test is classed as functional, cell-based. This is another data set of the same source.
Test [5] deals with NAD-dependent protein deacylase sirtuin-5, mitochondrial (Homo sapiens, UniProt Q9NXA8). The test can be described thus: SIRT5 desuccinylase inhibitors, dose response, biochemical, fluorescence imaging, cherry-pick, set 5 (AID 720591).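 Note: desuccinylation of succinyl peptide AMC substrate read as fluorescence after trypsin release; potency of inhibitors that lower fluorescence and may act on trypsin instead.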
Test [6] can be described thus: HepG2 cell cytotoxicity, dose response, cytotoxicity control for Shn3 inhibitor project, CellTiter-Glo, cherry-picked (AID 624134). The test is classed as functional, cell-based.
Test [7] can be described thus: Luminescence Cell-Based Dose Retest to Confirm Inhibitors of Cancer Stem Cells. [Related pubchem assays (depositor defined):AID2717, AID2721]. Format: functional. The settings on record: Homo sapiens.
The target of test [8] is Disintegrin and metalloproteinase domain-containing protein 17 (Homo sapiens, UniProt P78536). Put plainly: ADAM17 protease inhibitors, dose response, counter-screen for ADAM10 exosite inhibitor project, biochemical, quenched FRET substrate (AID 743253). A general note: A counterscreen serves to expose hits that act by an unwanted route or on another target.
The nature of test [9]: ADAM10 inhibitors, peptide cleavage, dose response, biochemical, QFRET (AID 743254).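 Note: ADAM10 enzyme with the DM2 quenched FRET peptide as substrate; EDANS fluorescence gain as the protease cuts the substrate; inhibitor potency against ADAM10 proteolytic activity.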
Test [10] can be described thus: Shn3 3'UTR reporter inhibitors, dose response, cell-based, Clone20 osteoblasts, firefly luciferase, cherry-picked (AID 624132).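 Note: firefly luciferase luminescence from reporter carrying the Shn3 3'UTR in osteoblasts.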 The test is classed as functional.
Test [11] in a line: control 3'UTR Renilla luciferase suppression, dose response, counter-screen for Shn3 inhibitor project, cell-based, Clone20-Shn3RL, cherry-picked (AID 624133). The test is classed as functional.
For test [12], the target named is T2, Latent membrane protein 1 (Human herpesvirus 4 (strain B95-8), UniProt P03230).
T2 sequence (P03230 whole entry): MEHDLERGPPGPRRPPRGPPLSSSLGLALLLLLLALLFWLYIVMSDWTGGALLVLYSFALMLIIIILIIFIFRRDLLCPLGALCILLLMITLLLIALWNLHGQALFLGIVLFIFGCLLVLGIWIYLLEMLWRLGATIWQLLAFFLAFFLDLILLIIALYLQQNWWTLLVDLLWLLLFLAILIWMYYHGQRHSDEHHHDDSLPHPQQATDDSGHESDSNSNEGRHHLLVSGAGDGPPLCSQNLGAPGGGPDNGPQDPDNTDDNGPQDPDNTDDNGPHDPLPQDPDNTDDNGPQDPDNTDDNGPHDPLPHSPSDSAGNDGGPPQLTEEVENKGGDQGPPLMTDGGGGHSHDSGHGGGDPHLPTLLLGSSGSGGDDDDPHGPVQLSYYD
Put plainly: TES1-eGFP NF-kB reporter inhibition versus Tet-On dsRED, dose response, selectivity assay for LMP1 NF-kB inhibitor project, imaging, HEK293T, dual-color eGFP/dsRED, cherry-picks (AID 588398). The test is classed as functional, cell-based.

The test system of test [13] is HEK293. The test can be described thus: inhibitors of LMP1-driven NF-kB reporter, dose response, cell-based, HEK293, luciferase, cherry-pick (AID 588343). Format: functional. The note with it: Homo sapiens.
In test [14] the target is COUP transcription factor 2 (Homo sapiens, UniProt P24468). The test can be described thus: Luminescence-based cell-based high throughput dose response assay to identify inhibitors of COUP-TFII (NR2F2). Format: functional.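 Note: HEK293 cells transiently cotransfected with COUP-TFII expression vector and reporter; luciferase reporter luminescence driven by COUP-TFII from the pX2-168 reporter plasmid.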
Test [15] addresses T3, Protein skinhead-1 (Caenorhabditis elegans, UniProt P34707).
T3 sequence (P34707 whole entry): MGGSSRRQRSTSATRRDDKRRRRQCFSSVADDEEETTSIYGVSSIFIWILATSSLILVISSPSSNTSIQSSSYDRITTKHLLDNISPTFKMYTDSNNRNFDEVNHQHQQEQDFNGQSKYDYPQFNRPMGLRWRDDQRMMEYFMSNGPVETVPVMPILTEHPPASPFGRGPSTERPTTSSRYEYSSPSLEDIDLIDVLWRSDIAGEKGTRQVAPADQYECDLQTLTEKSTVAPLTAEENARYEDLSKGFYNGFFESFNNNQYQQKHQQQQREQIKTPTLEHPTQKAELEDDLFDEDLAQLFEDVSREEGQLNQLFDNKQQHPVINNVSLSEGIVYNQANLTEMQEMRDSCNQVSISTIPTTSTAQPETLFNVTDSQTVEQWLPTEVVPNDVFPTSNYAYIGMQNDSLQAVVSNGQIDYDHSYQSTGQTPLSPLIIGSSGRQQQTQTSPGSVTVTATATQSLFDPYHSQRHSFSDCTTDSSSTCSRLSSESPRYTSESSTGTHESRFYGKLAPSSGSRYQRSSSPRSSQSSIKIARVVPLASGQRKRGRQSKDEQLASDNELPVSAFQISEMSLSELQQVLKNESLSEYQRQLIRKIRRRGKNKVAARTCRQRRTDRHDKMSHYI
The test is classed as functional.

A short description of test [16]: non-specific cell cytotoxicity, dose response, cytotoxicity control for PAX8 inhibitor project, plate reader, dry powder samples (AID 743021). The test is classed as functional, cell-based.
The target in test [17] is Paired box protein Pax-8 (Homo sapiens, UniProt Q06710). The test can be described thus: inhibitors of PAX8-driven TPO luciferase reporter, dose response, RMG-I cells, cherry-pick (AID 687027).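 Note: luciferase reporter driven by Pax8 target thyroperoxidase promoter measured by SteadyGlo luminescence.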 Format: functional, cell-based. A general note: A reporter such as luciferase makes a cellular process visible.
A short description of test [18]: IGROV1 ovarian cancer cell cytotoxicity, dose response, PAX8 inhibitor project, plate reader, dry powder samples (AID 743043). The test is classed as functional, cell-based. The note with it: IGROV-1.
Test [19] is described as follows: NIH:OVCAR-3 ovarian cancer cell cytotoxicity, dose response, PAX8 inhibitor project, plate reader, dry powder samples (AID 743044). Format: functional, cell-based.

By EC50 is commonly meant the concentration that produces a half-maximal response. What is called AC50 is the midpoint of the concentration-response curve, whichever way the signal moves. For orientation: IC50 means the concentration that gives 50% inhibition.

Calls of active or inactive are those of the source.

Chain of Disintegrin and metalloproteinase domain-containing protein 17 (P78536 whole entry, the tested form may be a part): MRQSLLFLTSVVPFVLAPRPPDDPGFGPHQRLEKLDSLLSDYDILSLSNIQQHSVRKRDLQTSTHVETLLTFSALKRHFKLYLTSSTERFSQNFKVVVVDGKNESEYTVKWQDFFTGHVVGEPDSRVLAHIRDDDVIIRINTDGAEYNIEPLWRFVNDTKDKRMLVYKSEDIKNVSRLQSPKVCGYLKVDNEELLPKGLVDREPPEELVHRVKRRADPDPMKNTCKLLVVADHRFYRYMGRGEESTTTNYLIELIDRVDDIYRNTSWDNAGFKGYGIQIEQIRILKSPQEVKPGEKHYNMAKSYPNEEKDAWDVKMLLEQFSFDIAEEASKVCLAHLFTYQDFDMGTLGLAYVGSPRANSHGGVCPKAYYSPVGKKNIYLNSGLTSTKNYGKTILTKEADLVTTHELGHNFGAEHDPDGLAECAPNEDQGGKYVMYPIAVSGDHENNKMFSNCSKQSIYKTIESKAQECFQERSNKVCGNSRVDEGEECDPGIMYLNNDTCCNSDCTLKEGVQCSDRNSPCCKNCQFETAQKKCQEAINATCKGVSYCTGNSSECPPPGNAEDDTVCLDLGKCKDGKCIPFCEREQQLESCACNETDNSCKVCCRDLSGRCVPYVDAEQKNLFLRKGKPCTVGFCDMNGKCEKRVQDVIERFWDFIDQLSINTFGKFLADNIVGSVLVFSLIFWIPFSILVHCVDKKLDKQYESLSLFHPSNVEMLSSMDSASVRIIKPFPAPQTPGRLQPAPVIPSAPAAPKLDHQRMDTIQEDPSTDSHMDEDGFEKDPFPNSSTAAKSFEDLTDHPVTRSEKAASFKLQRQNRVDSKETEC
Chain of Endoplasmic reticulum aminopeptidase 1 (Q9NZ08 whole entry): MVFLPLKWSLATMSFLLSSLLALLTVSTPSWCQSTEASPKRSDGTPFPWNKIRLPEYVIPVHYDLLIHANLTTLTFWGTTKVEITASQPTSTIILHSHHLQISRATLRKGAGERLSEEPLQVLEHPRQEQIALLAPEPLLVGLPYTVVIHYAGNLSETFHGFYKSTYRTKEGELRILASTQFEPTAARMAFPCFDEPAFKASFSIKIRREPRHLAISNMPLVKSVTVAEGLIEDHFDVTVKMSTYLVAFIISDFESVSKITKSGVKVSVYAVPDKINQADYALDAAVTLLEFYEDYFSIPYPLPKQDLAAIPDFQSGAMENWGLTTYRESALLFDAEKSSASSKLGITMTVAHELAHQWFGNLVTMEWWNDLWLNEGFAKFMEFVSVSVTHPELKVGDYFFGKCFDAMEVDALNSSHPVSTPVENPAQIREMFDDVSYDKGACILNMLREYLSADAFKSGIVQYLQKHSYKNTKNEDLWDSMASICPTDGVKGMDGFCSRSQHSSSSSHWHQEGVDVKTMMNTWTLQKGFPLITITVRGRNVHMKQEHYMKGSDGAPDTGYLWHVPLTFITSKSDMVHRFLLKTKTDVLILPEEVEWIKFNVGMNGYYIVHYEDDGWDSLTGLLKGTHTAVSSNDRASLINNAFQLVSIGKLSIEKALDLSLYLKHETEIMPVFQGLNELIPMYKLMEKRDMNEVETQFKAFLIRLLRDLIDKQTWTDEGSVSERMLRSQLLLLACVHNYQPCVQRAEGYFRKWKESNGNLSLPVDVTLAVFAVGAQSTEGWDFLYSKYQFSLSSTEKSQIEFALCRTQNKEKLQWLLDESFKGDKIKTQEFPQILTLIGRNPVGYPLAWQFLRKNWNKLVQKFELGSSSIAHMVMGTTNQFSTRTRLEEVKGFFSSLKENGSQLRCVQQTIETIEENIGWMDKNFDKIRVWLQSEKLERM
Chain of NAD-dependent protein deacylase sirtuin-5, mitochondrial (Q9NXA8 whole entry): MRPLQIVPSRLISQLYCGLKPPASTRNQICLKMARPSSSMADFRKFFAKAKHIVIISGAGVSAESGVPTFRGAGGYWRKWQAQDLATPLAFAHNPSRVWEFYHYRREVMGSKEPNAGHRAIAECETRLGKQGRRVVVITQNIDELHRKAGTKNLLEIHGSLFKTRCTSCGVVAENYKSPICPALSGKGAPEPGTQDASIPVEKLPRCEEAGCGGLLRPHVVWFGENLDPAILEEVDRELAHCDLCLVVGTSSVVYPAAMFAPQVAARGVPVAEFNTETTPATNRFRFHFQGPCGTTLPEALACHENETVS
Chain of COUP transcription factor 2 (P24468 whole entry): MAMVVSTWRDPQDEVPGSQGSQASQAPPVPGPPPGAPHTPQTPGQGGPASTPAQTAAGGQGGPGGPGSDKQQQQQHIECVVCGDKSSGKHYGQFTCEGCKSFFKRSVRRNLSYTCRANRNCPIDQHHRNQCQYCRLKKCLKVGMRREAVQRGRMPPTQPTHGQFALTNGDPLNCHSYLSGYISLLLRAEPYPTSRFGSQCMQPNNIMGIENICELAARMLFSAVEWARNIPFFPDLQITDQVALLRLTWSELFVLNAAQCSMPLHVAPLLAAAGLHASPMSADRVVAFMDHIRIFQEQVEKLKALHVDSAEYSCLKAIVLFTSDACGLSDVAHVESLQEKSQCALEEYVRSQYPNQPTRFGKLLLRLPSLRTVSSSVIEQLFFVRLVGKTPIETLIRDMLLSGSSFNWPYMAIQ
Chain of Paired box protein Pax-8 (Q06710 whole entry): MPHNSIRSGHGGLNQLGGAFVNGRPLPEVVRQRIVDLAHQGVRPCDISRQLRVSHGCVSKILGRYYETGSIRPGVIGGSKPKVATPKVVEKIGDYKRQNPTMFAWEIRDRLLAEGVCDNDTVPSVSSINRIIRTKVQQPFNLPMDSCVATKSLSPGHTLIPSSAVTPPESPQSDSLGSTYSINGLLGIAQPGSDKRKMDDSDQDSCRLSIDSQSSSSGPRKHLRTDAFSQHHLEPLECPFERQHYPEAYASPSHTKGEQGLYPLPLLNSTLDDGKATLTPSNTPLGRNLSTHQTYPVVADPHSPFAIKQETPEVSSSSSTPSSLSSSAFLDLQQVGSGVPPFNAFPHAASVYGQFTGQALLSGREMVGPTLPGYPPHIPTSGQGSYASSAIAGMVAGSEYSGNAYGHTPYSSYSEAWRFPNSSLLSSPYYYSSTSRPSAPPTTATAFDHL

For `C/C(=N\NC(=O)OC(C)(C)C)c1ccc[nH]1`, in test [1], the EC50 is > 67.6 µM (inactive).
Turning to `O=C(NCCc1ccncc1)[C@@H]1N[C@@H]2c3ccc(/C=C/c4ccccc4)c(=O)n3C[C@@H]2[C@H]1CO`, the AC50 in [2] is 13 µM (active).
Regarding `CC1=NN(C(N)=S)C(=O)C1N=Nc1ccc(Br)cc1` (stereo unspecified), the EC50 in test [3] and in test [4] was > 67.6 µM (inactive) throughout.
In the case of `O=c1c2ccccc2cnn1-c1ccc(Br)cc1`, the EC50 in [3] and in test [4] was > 67.5 µM (inactive) throughout.
Take `CCCn1c(SCC(=O)Nc2ccc3c(c2)OCO3)nc2c1c(=O)n(C)c(=O)n2C`: the AC50 in test [5] is > 30 µM (inactive).
In the case of `COCCNC(=O)/C(C#N)=C/c1cc(C)n(-c2ccc(C)cc2)c1C`, the EC50 in [1] was > 67.5 µM (inactive).
Regarding `C=CCC[C@H](Cc1ccc(F)cc1)C(=O)OC[C@@H](Cc1c[nH]c2ccccc12)NC(=O)[C@H](CC=C)CC(=O)N(CCO)Cc1ccccc1`, the AC50 in test [6] is 30.9 µM (active); in test [7], 3.42 µM (active); in [10] it was 8.66 µM (active); in [11], 29 µM (active). Besides, the figures for the IC50 in test [8] and in test [9] were > 69.5 µM (inactive) and > 7.72 µM (active), respectively.
As for `CCc1cc(=O)oc2c(CNCc3c(F)cccc3Cl)c(O)ccc12`, the results for the AC50 in test [2], in [12] and in test [13] were 8.53 µM (active), 54.9 µM (active) and 230 µM (active), respectively.
Regarding `CCCOc1ccc(NC(=O)CC2C(=O)N(Cc3ccccc3)C(=S)N2Cc2cccs2)cc1` (stereo unspecified), the IC50 in [8] was > 69.6 µM (inactive); in [9], 44.4 µM (inactive).
For `CC(C)CCN1C(=O)c2ccccc2C1c1nnnn1-c1ccc2c(c1)OCCO2` (stereo unspecified), in [5], the AC50 was > 30 µM (inactive).
`Cc1ccc(F)cc1NC(=O)Cc1nn(C)c(=O)c2ccccc12`: the values for the IC50 in test [14] and in [15] were 12.7 µM (inactive) and > 100 µM (inactive), respectively.
Turning to `Cc1ccccc1-c1ccc([C@@H]2[C@@H]3CN(C(=O)Nc4cccc(F)c4)C[C@H]2N3)cc1`, the AC50 in [16] is 22.9 µM (active); in test [17], 30.7 µM (active); in [18] it was 21.8 µM (active); in test [19], 37.4 µM (active).
